Source: US9302999B2, “Substituted triazoles as herbicides” (E. I. DU PONT DE NEMOURS AND COMPANY, priority 2012, dated 2016)

Legend:
Assay type in all cases: in vivo
[1] = tested on: sedge, umbrella (small-flower umbrella sedge, Cyperus difformis); test: Test C flooded paddy test: sedge, umbrella; settings: scale 0 to 100 (0 no effect, 100 complete control)
How it was run: (§1)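 Plants were grown to the 2-leaf stage, pots flooded to 3 cm above soil, and test compounds applied directly to the paddy water, with that depth held throughout. After 13 to 15 days in a greenhouse, injury was visually rated against controls on a 0 (no effect) to 100 (complete control) scale.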

[2] = tested on: crabgrass, large (large crabgrass, Digitaria sanguinalis); test: Test A pre-/postemergence: crabgrass, large; settings: for Crabgrass, Large plant response rating: Postemergence; for Plant response rating, Crabgrass, Large: Preemergence
How it was run: (§2)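 Whole-plant greenhouse assay in loam/sand. Preemergence directed soil spray plus simultaneous postemergence spray (one- to two-leaf stage, 2–10 cm). Rated visually ~10 days later, 0 = no effect, 100 = complete control.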

[3] = tested on: wheat (Triticum aestivum); test: Test A pre-/postemergence: wheat; settings: for Wheat plant response rating: Postemergence; for Plant response rating, Wheat: Preemergence
How it was run: as §2

[4] = tested on: ducksalad (Heteranthera limosa); test: Test C flooded paddy test: ducksalad; settings: scale 0 to 100 (0 no effect, 100 complete control)
How it was run: as §1

[5] = tested on: morningglory (Ipomoea spp.); test: Test A pre-/postemergence: morningglory; settings: for Morningglory plant response rating: Postemergence; for Plant response rating, Morningglory: Preemergence
How it was run: as §2

corn (Zea mays) = test: Test A pre-/postemergence: corn; settings: for Corn plant response rating: Postemergence; for Plant response rating, Corn: Preemergence
How it was run: as §2

[6] = tested on: barnyardgrass (Echinochloa crus-galli); test: Test C flooded paddy test: barnyardgrass; settings: scale 0 to 100 (0 no effect, 100 complete control)
How it was run: as §1

rice (Oryza sativa) = test: Test C flooded paddy test: rice; settings: scale 0 to 100 (0 no effect, 100 complete control)
How it was run: as §1

[7] = tested on: barnyardgrass (Echinochloa crus-galli); test: Test A pre-/postemergence: barnyardgrass; settings: for Barnyardgrass plant response rating: Postemergence; for Plant response rating, Barnyardgrass: Preemergence
How it was run: as §2

[8] = tested on: pigweed (Amaranthus retroflexus); test: Test A pre-/postemergence: pigweed; settings: for Pigweed plant response rating: Postemergence; for Plant response rating, Pigweed: Preemergence
How it was run: as §2

[9] = tested on: velvetleaf (Abutilon theophrasti); test: Test A pre-/postemergence: velvetleaf; settings: for Velvetleaf plant response rating: Postemergence; for Plant response rating, Velvetleaf: Preemergence
How it was run: as §2

[10] = tested on: foxtail, giant (giant foxtail, Setaria faberii); test: Test A pre-/postemergence: foxtail, giant; settings: for Foxtail, Giant plant response rating: Postemergence; for Plant response rating, Foxtail, Giant: Preemergence
How it was run: as §2

[11] = Flood (flooded paddy test), 62 g ai/ha, visual rating after 13 to 15 days
[12] = Flood (flooded paddy test), 125 g ai/ha, visual rating after 13 to 15 days
[13] = Flood (flooded paddy test), 250 g ai/ha, visual rating after 13 to 15 days
[14] = 125 g ai/ha, 0 to 100 scale, 0 is no effect, 100 is complete control
[15] = 500 g ai/ha, visual rating on 0 to 100 scale (0 no effect, 100 complete control), approximately ten days
[16] = 125 g ai/ha, 0 to 100 scale (0 no effect, 100 complete control)
[17] = 500 g ai/ha, 0 to 100 scale, 0 is no effect, 100 is complete control

Cc1nn(-c2cccc([N+](=O)[O-])c2)nc1C(=O)c1cccc(C(F)(F)F)c1 [Compound 62]
0: Plant response rating, Sedge, Umbrella [1, 11] | Plant response rating, Sedge, Umbrella [1, 12] | Plant response rating, Sedge, Umbrella [1, 13] | Plant response rating, Sedge, Umbrella ([1]; Flood, 31 g ai/ha) | Crabgrass, Large plant response rating [2, 14] | Crabgrass, Large plant response rating [2, 15] | Plant response rating, Crabgrass, Large [2, 16] | Plant response rating, Crabgrass, Large [2, 17] | Wheat plant response rating [3, 14] | Wheat plant response rating [3, 15] | Plant response rating, Wheat [3, 16] | Plant response rating, Wheat [3, 17] | Plant response rating, Ducksalad [4, 11] | Plant response rating, Ducksalad [4, 12] | Plant response rating, Ducksalad [4, 13] | Plant response rating, Ducksalad ([4]; Flood, 31 g ai/ha) | Morningglory plant response rating [5, 14] | Morningglory plant response rating [5, 15] | Plant response rating, Morningglory [5, 16] | Plant response rating, Morningglory [5, 17] | Corn plant response rating (corn (Zea mays); [14]) | Corn plant response rating (corn (Zea mays); [15]) | Plant response rating, Corn (corn (Zea mays); [16]) | Plant response rating, Corn (corn (Zea mays); [17]) | Plant response rating, Barnyardgrass [6, 11] | Plant response rating, Barnyardgrass [6, 12] | Plant response rating, Barnyardgrass [6, 13] | Plant response rating, Barnyardgrass ([6]; Flood, 31 g ai/ha) | Plant response rating, Rice (rice (Oryza sativa); [11]) | Plant response rating, Rice (rice (Oryza sativa); [12]) | Plant response rating, Rice (rice (Oryza sativa); [13]) | Plant response rating, Rice (rice (Oryza sativa); Flood, 31 g ai/ha) | Barnyardgrass plant response rating [7, 14] | Plant response rating, Barnyardgrass [7, 16] | Plant response rating, Barnyardgrass [7, 17] | Pigweed plant response rating [8, 14] | Plant response rating, Pigweed [8, 16] | Plant response rating, Pigweed [8, 17] | Velvetleaf plant response rating [9, 14] | Velvetleaf plant response rating [9, 15] | Plant response rating, Velvetleaf [9, 16] | Plant response rating, Velvetleaf [9, 17] | Foxtail, Giant plant response rating [10, 14] | Foxtail, Giant plant response rating [10, 15] | Plant response rating, Foxtail, Giant [10, 16] | Plant response rating, Foxtail, Giant [10, 17]
10: Barnyardgrass plant response rating [7, 15] | Pigweed plant response rating [8, 15]

Cc1nn(-c2ccc(F)cc2)nc1Cc1ccnc(OCC(F)(F)F)c1 [Compound 33]
50: Pigweed plant response rating [8, 15]
0: Plant response rating, Sedge, Umbrella [1, 11] | Plant response rating, Sedge, Umbrella [1, 12] | Plant response rating, Sedge, Umbrella [1, 13] | Plant response rating, Sedge, Umbrella ([1]; Flood, 31 g ai/ha) | Crabgrass, Large plant response rating [2, 14] | Plant response rating, Crabgrass, Large [2, 16] | Wheat plant response rating [3, 14] | Wheat plant response rating [3, 15] | Plant response rating, Wheat [3, 16] | Plant response rating, Wheat [3, 17] | Plant response rating, Ducksalad [4, 11] | Plant response rating, Ducksalad [4, 12] | Plant response rating, Ducksalad [4, 13] | Plant response rating, Ducksalad ([4]; Flood, 31 g ai/ha) | Morningglory plant response rating [5, 14] | Plant response rating, Morningglory [5, 16] | Plant response rating, Morningglory [5, 17] | Corn plant response rating (corn (Zea mays); [14]) | Plant response rating, Corn (corn (Zea mays); [16]) | Plant response rating, Corn (corn (Zea mays); [17]) | Plant response rating, Barnyardgrass [6, 11] | Plant response rating, Barnyardgrass [6, 12] | Plant response rating, Barnyardgrass [6, 13] | Plant response rating, Barnyardgrass ([6]; Flood, 31 g ai/ha) | Plant response rating, Rice (rice (Oryza sativa); [11]) | Plant response rating, Rice (rice (Oryza sativa); [12]) | Plant response rating, Rice (rice (Oryza sativa); [13]) | Plant response rating, Rice (rice (Oryza sativa); Flood, 31 g ai/ha) | Barnyardgrass plant response rating [7, 14] | Barnyardgrass plant response rating [7, 15] | Plant response rating, Barnyardgrass [7, 16] | Plant response rating, Barnyardgrass [7, 17] | Plant response rating, Pigweed [8, 16] | Plant response rating, Pigweed [8, 17] | Velvetleaf plant response rating [9, 14] | Velvetleaf plant response rating [9, 15] | Plant response rating, Velvetleaf [9, 16] | Plant response rating, Velvetleaf [9, 17] | Foxtail, Giant plant response rating [10, 14] | Plant response rating, Foxtail, Giant [10, 16] | Plant response rating, Foxtail, Giant [10, 17]
10: Crabgrass, Large plant response rating [2, 15] | Plant response rating, Crabgrass, Large [2, 17] | Morningglory plant response rating [5, 15] | Corn plant response rating (corn (Zea mays); [15]) | Pigweed plant response rating [8, 14] | Foxtail, Giant plant response rating [10, 15]
